In patent US11596620B2, “Formulations with reduced oxidation” (Genentech, Inc., priority 2013, dated 2023):
“Also recorded” adds a separate entry of the source.

Legend:
[1] = Photosensitivity screening assay (H2O2 by Amplex Ultra Red after light exposure); type: physicochemical; conditions: for H2O2 produced in comparison to L-Trp: 1 mM, four hours of light at 250 W/m^2, times more H2O2 than L-Trp
Description: As a screening tool, antioxidant candidates were exposed to light for four hours at 250 W/m^2 and the resulting H2O2 formation was quantified by the Amplexassay. Specifically, antioxidants were prepared to 1 mM in 20 mM histidine acetate buffer at pH 5.5. The 1 mM antioxidant solutions were aliquoted into glass vials (2 mL/glass vial) and exposed to four hours of light at 250 W/m^2 in an Atlas SunTest CPS+ Xenon Test Instrument (Chicago, Ill.). Total UV dose was 90 watt-hours/square meter and total visible dose was 0.22 million lux hours over the 4-hour period. Control vials were wrapped in aluminum foil and treated similarly. The amount of hydrogen peroxide generated after exposure to light was measured using the Amplex® Ultra Red Assay (Invitrogen, Carlsbad, Calif.) following the manufacturer's recommended procedure. On addition of horseradish peroxidase (HRP), the dye reacted 1:1 stoichiometrically with H2O2, resulting in the production of fluorescent oxidation product resorufin. In this study, fluorescence readings were obtained using a Spectra Max M2 Micro-plate Reader (Molecular Devices, Sunnyvale, Calif.) with excitation and emission set at 560 nm and 590 nm, respectively. Final H2O2 concentrations were determined using a standard curve ranging from 0 μm to 20 μm.

[2] = Cyclic voltammetry (CV) screening assay, oxidation potential; type: physicochemical
Description: The oxidation/reduction characteristics of the compounds were investigated. Several compounds, including L-Trp and derivatives, were evaluated for the protection of Trp oxidation in proteins using cyclic voltammetry (CV) and rank ordered based on their oxidation potentials (Table 2). Specifically, the candidate antioxidants were dissolved in deionized water and then added to a 0.2 M lithium perchlorate electrolyte solution. […] Solutions were scanned from −0.10 V to +1.50 V at a scan rate of either 100 or 500 mV/sec. The analytical cell was purged for four minutes with nitrogen before scanning of each antioxidant solution. The input was a linear scan of the potential of a working electrode, and the output was measurement of the resulting current. […] Redox reactions were characterized by sharp increases or decreases in current (peaks). The potential at which an oxidation reaction occurred was referred to as the anodic peak potential (or oxidation potential), and the potential at which a reduction occurred was referred to as is the cathodic peak (or reduction) potential.

[3] = system: mAb1; experiment: mAb1 AAPH stress study, RP-HPLC; type: physicochemical, human; conditions: for Fab (Trp residue) oxidation: mAb1 with AAPH for 24 hours at 40° C., antioxidants at 1 mM or none
Description: (§1) The fragments were reduced with DTT, and then separated and identified via Liquid Chromatography-Mass Spectrometry (LC-MS). […] Comparison of area integrated under the oxidized and native peaks was used to quantify HC Fab and Fc oxidation. […] By using the papain digest RP-HPLC method in the present study it was possible to investigate Trp residue oxidation by quantifying HC Fab oxidation, and Met residue oxidation by quantifying HC Fc oxidation.
Antioxidants were added at 1 mM. […] After buffer exchange, each solution was prepared for analysis by reverse-phase HPLC as described above.

[4] = system: mAb1; experiment: mAb1 light stress study (16 hours at 250 W/m^2), RP-HPLC; type: physicochemical, human; conditions: 16 hours of light at 250 W/m^2; for Light-induced Fab oxidation, effect in words / Light-induced Fc oxidation, effect in words: excipient 1 mM; for Fab oxidation increase over the control level (mAb1 Ref Mat): excipient 1 mM or none; for Light-induced Fc oxidation, effect in words: compared to no excipient
Description: as §1
Antioxidants were added at 1 mM. Glass vials containing these formulations were exposed to 250 W/m^2 light in an Atlas SunTest CPS+ Xenon Test Instrument (Chicago, Ill.). Control vials were wrapped in aluminum foil and treated similarly. After light exposure, solutions were prepared for analysis by reverse-phase HPLC as described above.

[5] = system: mAb1; experiment: Light stress of mAb1 formulation (eight hours at 250 W/m^2), papain digest RP-HPLC; type: physicochemical, human
Description: L-tryptophan (L-Trp), an antioxidant used in protein formulations, has been recently shown to be photosensitive (Igarashi et al., Anal Sci 23(8):943-8 (2007)) and to have the ability to produce H2O2 upon light exposure. […] Control vials were wrapped in aluminum foil and treated similarly. After light exposure, solutions were prepared for analysis by reverse-phase HPLC. […] Following incubation, 900 μL of the solution was combined with 100 μL of 1 M dithiothreitol (DTT) and incubated for another thirty minutes at 37° C. Samples were then run on an Agilent, Inc. 1100/1200 HPLC system (Santa Clara, Calif.) equipped with UV detection at 280 nm in conjunction with a Varian, Inc. Pursuit 3 μm, 2 mm ID×250 mm diphenyl column (Palo Alto, Calif.). Mobile Phase A was 0.1% TFA in water. Mobile Phase B was 0.1% TFA in acetonitrile. The mobile phase gradient increased linearly from 34% B at 0 minutes to 43% B at 50.0 minutes, then to 95% B at 50.1 minutes. The gradient remained at 95% B until 60.1 minutes, and then decreased linearly from 95% B to 34% B between 60.1 and 60.2 minutes. The gradient remained at 34% B until the end of the cycle at 80.2 minutes. The column temperature was 65° C., total flow rate was 0.2 mL/min, and injection volume of each sample was 6 μL. Chromatograms were then integrated for quantification of oxidation.

[6] = 1 mM in 20 mM histidine acetate pH 5.5, four hours of light at 250 W/m^2
[7] = anodic peak potential, glassy carbon working electrode, 0.2M lithium perchlorate
[8] = cyclic voltammetry, 0.2 M lithium perchlorate

SMILES | Oxidation Potential [2, 7] | (H2O2 produced by Compound)/(H2O2 produced by L-Trp) [1, 6] | Oxidation potential relative to L-Trp, in words ([2]; cyclic voltammetry) | H2O2 produced compared to L-Trp, in words [1, 6] | further results
Oc1cccc2[nH]ccc12 [4-Hydroxyindole] | – | 0.00 | – | – | –
Nc1ccc(O)cc1C(=O)O [5-Hydroxyanthranilic Acid] | – | 0.44 | – | half as much H2O2 | –
O=C(O)Cc1c[nH]c2ccc(O)cc12 [5-Hydroxyindole-3-Acetic Acid] | 0.535 V vs Ag/AgCl | 0.11 | – | – | –
Oc1ccc2[nH]ccc2c1 [5-Hydroxyindole] | 0.580 V vs Ag/AgCl | −0.08 | – | – | Fab (Trp residue) oxidation [3]: about 2%; Light-induced Fab oxidation, effect in words [4]: near control levels
O=C(O)c1cc(O)ccc1O [5-Hydroxysalicylic Acid] | – | 0.84 | – | behaved like L-Trp | –
O=C(O)c1cc2cccc(O)c2[nH]1 [7-Hydroxyindole-2-Carboxylic Acid] | – | 0.15 | – | – | –
Oc1cccc2cc[nH]c12 [7-Hydroxyindole] | – | −0.03 | – | – | Fab (Trp residue) oxidation [3]: about 2%; Light-induced Fab oxidation, effect in words [4]: near control levels
Nc1ccccc1C(=O)O [Anthranilic Acid] | – | 2.50 | – | twice as much H2O2 | –
O=C(O)Cc1c[nH]c2ccccc12 [Indole-3-Acetic Acid] | 0.948 V vs Ag/AgCl | 2.40 | higher oxidation potential than L-Trp | twice as much H2O2; also recorded: two times more H2O2 | –
c1ccc2[nH]ccc2c1 [Indole] | – | 0.95 | significantly lower oxidation potential than L-Trp | behaved similarly to L-Trp | –
CSCC[C@H](N)C(=O)O [L-Met, L-methionine] | – | – | – | – | Fab oxidation, effect in words ([5]; 10, 25, 50, and 100 mM L-Met added to formulation containing 1 mM L-Trp, eight hours of light): appeared to reduce Fab oxidation slightly; Fc oxidation, effect in words ([5]; eight hours of light at 250 W/m^2, no excipient, or 10, 25, 50 and 100 mM L-Met added to 1 mM L-Trp): reduced the amount of Fc oxidation
Cc1ncc(CO)c(CO)c1O [Pyridoxine] | – | 5.16 | – | – | H2O2 produced in comparison to L-Trp [1]: 5 times
O=C(O)c1ccccc1O [Salicylic Acid] | 1.080 V vs Ag/AgCl | – | higher oxidation potential than L-Trp | – | (H2O2 produced by Compound)/(H2O2 produced by L-Trp) ([1]; pH 5.5): 0.03; H2O2 produced compared to L-Trp, in words ([1]; pH 5.5): very little H2O2; Oxidation Potential [2, 8]: 1.080 V vs Ag/AgCl; AAPH-induced Fab oxidation, effect in words ([3]; excipient 1 mM, AAPH 24 hours at 40° C.): almost no effect; Fab oxidation increase over the control level (mAb1 Ref Mat) [4]: 8 fold; Light-induced Fc oxidation, effect in words [4]: more Fc oxidation
Cc1c(C)c2c(c(C)c1O)CCC(C)(C(=O)O)O2 (stereo not drawn) [Trolox] | – | 122.75 | – | – | H2O2 produced in comparison to L-Trp [1]: 123 times
NCCc1c[nH]c2ccccc12 [Tryptamine] | 1.010 V vs Ag/AgCl | 0.53 | higher oxidation potential than L-Trp | about half as much H2O2 | H2O2 produced compared to L-Trp, in words ([1]; 1 mM in 20 mM histidine acetate pH 5.5, four hours of light at 250 W/m^2, listed as tryptamine): two times less

More lines, main results first:

Oxidation Potential [2, 7] | SMILES | (H2O2 produced by Compound)/(H2O2 produced by L-Trp) [1, 6] | Oxidation potential relative to L-Trp, in words ([2]; cyclic voltammetry) | H2O2 produced compared to L-Trp, in words [1, 6] | further results
0.410 V vs Ag/AgCl | Nc1ccc2[nH]cc(CC(N)C(=O)O)c2c1 (racemic) [5-Amino-DL-Trp, 5-amino-DL-tryptophan] | 0.29 | – | – | Oxidation Potential [2, 8]: 0.410 V vs Ag/AgCl
0.890 V vs Ag/AgCl | COc1ccc2[nH]cc(CC(N)C(=O)O)c2c1 (racemic) [5-Methoxy-DL-Trp, 5-methoxy-DL-tryptophan] | 1.05 | – | – | Oxidation Potential [2, 8]: 0.890 V vs Ag/AgCl
1.055 V vs Ag/AgCl | NC(Cc1c[nH]c2ccc([N+](=O)[O-])cc12)C(=O)O (racemic) [5-nitro-DL-tryptophan] | – | higher oxidation potential than L-Trp | – | –
0.965 V vs Ag/AgCl | N[C@@H](Cc1c[nH]c2ccc(F)cc12)C(=O)O [5-Fluoro-L-Trp, 5-fluoro-L-tryptophan] | 0.71 | higher oxidation potential than L-Trp | – | –
0.565 V vs Ag/AgCl | N[C@@H](Cc1c[nH]c2ccc(O)cc12)C(=O)O [5-Hydroxy-L-Trp, 5-hydroxy-L-tryptophan] | 0.09 | – | about one tenth | Fab (Trp residue) oxidation [3]: about 2%; Light-induced Fab oxidation, effect in words [4]: near control levels
1.040 V vs Ag/AgCl | Nc1ccccc1C(=O)C[C@H](N)C(=O)O [L-Kynurenine, L-kynurenine] | 0.20 | higher oxidation potential than L-Trp | about one fifth | –
1.015 V vs Ag/AgCl | NC(=O)[C@@H](N)Cc1c[nH]c2ccccc12 [L-Trpamide, L-tryptophanamide] | 0.43 | higher oxidation potential than L-Trp | – | Fab oxidation increase over the control level (mAb1 Ref Mat) [4]: 8 fold; Light-induced Fc oxidation, effect in words [4]: more Fc oxidation
0.730 V vs Ag/AgCl | COc1ccc2[nH]cc(CCNC(C)=O)c2c1 [Melatonin (N-Acetyl-5-Methoxytryptamine), N-Acetyl-5-Methoxytryptamine] | 0.28 | – | less than a third | –
0.875 V vs Ag/AgCl | CC(=O)N[C@@H](Cc1c[nH]c2ccccc12)C(=O)O [N-Acetyl-L-Trp, N-acetyl-L-tryptophan] | 0.31 | – | – | –
0.600 V vs Ag/AgCl | NCCc1c[nH]c2ccc(O)cc12 [Serotonin (5-Hydroxytryptamine), 5-Hydroxytryptamine] | 0.03 | – | very little H2O2 | Fab (Trp residue) oxidation [3]: about 2%; Light-induced Fab oxidation, effect in words [4]: near control levels
